Measurements as given in ChEMBL document CHEMBL5365534, “Discovery of a Novel Ketohexokinase Inhibitor with Improved Drug Distribution in Target Tissue for the Treatment of Fructose Metabolic Disease” (J Med Chem, 2023).
Activity calls are given as the source filed them. No cut-off for these calls is given here.

Tests used:
[1] = AUC (0 to t) in Sprague-Dawley rat at 10 mg/kg, iv administered as single dose measured upto 24 hrs by LC-MS/MS analysis; format: ADME, organism-based; design: dose 10 mg/kg, time < 24 hrs, route iv; conditions: in vivo
in vitro [2] = conditions: human, Caco-2
Description: Apparent permeability of the compound across apical side to basolateral side in human Caco-2 cells at 10 uM incubated for 2 hrs by LC-MS/MS analysis

HepG2 [3] = assay: cells; conditions: Homo sapiens, HepG2, 3 h
Description: Antiproliferative activity against human HepG2 cells incubated for 3 hrs by LC-MS analysis

[4] = Metabolic stability in rat hepatocyte assessed as parent compound remaining at 10 uM measured after 4 hrs by LC-MS/MS analysis; format: ADME, cell-based; conditions: hepatocytes, read-out: Stability
[5] = Drug metabolism in dog hepatocytes assessed as glycine conjugation metabolite at 10 uM measured upto 240 mins by LC-MS/MS analysis; format: ADME, cell-based, Canis lupus familiaris, Hepatocyte; conditions: 4 h
Cytochrome P450 2C9 [6] = target: T1, Cytochrome P450 2C9 (Homo sapiens, UniProt P11712); assay: Time dependent inhibition of CYP2C9 in human liver microsomes at 10 uM preincubated for 30 mins followed by substrate addition and measured after 15 mins in presence of NADPH by LC-MS/MS analysis; format: ADME, Microsome
T1 sequence (P11712 whole entry): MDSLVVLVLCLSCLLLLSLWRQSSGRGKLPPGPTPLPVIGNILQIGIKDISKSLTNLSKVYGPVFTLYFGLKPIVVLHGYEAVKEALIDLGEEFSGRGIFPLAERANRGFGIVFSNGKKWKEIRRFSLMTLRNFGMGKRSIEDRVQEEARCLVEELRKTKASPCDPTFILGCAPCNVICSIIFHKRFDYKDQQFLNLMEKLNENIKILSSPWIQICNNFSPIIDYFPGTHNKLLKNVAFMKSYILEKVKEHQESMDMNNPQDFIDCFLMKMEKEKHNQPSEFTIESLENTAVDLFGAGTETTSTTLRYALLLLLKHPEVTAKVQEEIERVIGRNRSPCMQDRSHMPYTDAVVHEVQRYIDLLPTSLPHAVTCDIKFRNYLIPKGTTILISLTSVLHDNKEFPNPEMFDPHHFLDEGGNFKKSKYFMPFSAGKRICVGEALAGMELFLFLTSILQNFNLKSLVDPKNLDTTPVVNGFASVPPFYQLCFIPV

in vivo [7] = conditions: Sprague-Dawley, rat, heart, po, 10 mg/kg
Description: Drug concentration in Sprague-Dawley rat heart at 10 mg/kg, po administered as single dose measured upto 24 hrs by LC-MS/MS analysis

Cytochrome P450 3A4 = Cytochrome P450 3A4 (Homo sapiens, UniProt P08684)
Cytochrome P450 3A4, sequence (P08684 whole entry): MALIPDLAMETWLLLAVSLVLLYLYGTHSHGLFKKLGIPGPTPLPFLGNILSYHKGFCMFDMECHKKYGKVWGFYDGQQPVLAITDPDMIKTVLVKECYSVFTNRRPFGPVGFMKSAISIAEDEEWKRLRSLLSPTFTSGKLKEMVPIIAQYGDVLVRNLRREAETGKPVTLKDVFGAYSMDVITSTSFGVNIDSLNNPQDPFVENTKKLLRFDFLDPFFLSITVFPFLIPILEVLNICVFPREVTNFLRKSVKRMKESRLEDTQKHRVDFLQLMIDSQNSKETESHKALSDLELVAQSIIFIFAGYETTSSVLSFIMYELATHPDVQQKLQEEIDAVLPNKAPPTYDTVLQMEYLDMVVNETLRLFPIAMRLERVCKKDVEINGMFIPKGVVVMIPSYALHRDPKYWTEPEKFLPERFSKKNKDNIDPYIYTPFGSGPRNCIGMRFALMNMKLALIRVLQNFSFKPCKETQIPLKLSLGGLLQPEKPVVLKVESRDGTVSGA
Description: Inhibition of CYP3A4 in human liver microsomes at 0.1 to 30 uM measured for 5 mins in presence of NADPH by LC-MS/MS analysis

[8] = AUC (0 to infinity) in Sprague-Dawley rat at 10 mg/kg, po administered as single dose measured upto 24 hrs by LC-MS/MS analysis; format: ADME, organism-based; design: dose 10 mg/kg, time < 24 hrs, route po; conditions: in vivo
HepG2 [9] = assay: cells; conditions: Homo sapiens, HepG2, 48 h
Description: Cytotoxicity against human HepG2 cells measured after 48 hrs by microscopy based analysis

[10] = target: Sodium channel protein type 5 subunit alpha (Homo sapiens, UniProt Q14524)
Sodium channel protein type 5 subunit alpha, sequence (Q14524 whole entry): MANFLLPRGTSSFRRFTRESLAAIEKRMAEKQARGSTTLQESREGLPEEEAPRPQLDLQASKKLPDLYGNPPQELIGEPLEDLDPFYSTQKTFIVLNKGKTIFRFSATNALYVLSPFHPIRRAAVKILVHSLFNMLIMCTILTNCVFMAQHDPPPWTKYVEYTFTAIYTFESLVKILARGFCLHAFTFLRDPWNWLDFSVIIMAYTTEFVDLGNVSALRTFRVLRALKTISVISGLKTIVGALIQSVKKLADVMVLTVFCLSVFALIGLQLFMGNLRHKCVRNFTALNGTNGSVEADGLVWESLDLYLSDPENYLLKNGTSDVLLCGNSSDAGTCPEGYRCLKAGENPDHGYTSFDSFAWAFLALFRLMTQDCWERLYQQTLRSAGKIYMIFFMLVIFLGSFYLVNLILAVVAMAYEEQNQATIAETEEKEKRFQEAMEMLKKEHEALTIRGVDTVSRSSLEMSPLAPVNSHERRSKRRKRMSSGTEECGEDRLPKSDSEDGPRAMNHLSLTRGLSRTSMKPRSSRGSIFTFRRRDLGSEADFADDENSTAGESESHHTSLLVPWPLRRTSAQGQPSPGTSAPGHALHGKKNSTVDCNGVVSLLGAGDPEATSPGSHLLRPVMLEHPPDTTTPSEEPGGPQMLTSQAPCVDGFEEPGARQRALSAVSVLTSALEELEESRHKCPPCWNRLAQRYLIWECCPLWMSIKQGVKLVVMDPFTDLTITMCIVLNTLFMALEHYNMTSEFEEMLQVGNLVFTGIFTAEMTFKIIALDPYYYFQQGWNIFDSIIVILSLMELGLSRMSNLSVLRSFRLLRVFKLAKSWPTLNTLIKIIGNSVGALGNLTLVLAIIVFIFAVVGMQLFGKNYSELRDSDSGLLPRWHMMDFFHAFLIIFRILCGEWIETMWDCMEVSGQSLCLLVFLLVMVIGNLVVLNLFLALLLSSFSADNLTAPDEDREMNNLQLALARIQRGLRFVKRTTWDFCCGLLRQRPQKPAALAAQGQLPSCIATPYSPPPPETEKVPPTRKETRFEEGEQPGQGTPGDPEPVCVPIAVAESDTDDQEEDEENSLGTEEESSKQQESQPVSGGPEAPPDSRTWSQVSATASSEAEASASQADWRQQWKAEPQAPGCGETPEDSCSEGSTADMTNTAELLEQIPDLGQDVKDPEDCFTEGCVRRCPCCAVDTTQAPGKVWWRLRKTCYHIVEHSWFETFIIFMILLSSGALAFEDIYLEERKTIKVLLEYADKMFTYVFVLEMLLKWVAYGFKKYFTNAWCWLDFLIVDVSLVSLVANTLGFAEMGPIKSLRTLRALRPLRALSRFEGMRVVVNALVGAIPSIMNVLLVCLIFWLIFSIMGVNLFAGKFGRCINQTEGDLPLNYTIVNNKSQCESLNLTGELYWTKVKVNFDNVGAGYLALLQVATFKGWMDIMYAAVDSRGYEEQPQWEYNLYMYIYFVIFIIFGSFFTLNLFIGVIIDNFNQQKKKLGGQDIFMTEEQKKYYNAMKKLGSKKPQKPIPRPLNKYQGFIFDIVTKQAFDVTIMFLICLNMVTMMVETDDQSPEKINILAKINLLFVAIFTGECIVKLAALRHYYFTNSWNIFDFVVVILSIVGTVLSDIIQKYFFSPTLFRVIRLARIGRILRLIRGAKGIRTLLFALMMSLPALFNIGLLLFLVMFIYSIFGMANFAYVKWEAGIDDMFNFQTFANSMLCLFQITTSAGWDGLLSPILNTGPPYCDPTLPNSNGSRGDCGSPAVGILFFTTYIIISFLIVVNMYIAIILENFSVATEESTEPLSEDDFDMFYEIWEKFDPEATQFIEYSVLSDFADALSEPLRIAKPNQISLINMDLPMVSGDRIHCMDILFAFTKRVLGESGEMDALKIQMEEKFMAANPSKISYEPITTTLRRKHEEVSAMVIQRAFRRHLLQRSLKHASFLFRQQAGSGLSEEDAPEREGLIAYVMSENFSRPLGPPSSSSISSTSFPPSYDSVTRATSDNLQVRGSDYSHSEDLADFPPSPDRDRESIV
Description: Inhibition of human Nav1.5 by manual-patch clamp assay

in vitro [11] = conditions: rhesus monkey, hepatocytes
[12] = AUC (0 to infinity) in Beagle dog at 5 mg/kg, po administered as single dose measured upto 24 hrs by LC-MS/MS analysis; format: ADME, organism-based, Canis lupus familiaris; design: time < 24 hrs, dose 5 mg/kg, route po; conditions: in vivo
[13] = AUC (0 to t) in Beagle dog at 5 mg/kg, po administered as single dose measured upto 24 hrs by LC-MS/MS analysis; format: ADME, organism-based, Canis lupus familiaris; design: dose 5 mg/kg, time < 24 hrs, route po; conditions: in vivo
[14] = Drug metabolism in mouse hepatocytes assessed as glucuronidation metabolite at 10 uM measured upto 240 mins by LC-MS/MS analysis; format: ADME, cell-based, Hepatocyte; conditions: 4 h
[15] = Elimination half life in Sprague-Dawley rat at 10 mg/kg, po administered as single dose measured upto 24 hrs by LC-MS/MS analysis; format: ADME, organism-based; conditions: in vivo, read-out: beta t1/2 (converted)
PXR = target: T2, PXR (Homo sapiens, UniProt O75469); assay: in vitro
T2 sequence (O75469 whole entry): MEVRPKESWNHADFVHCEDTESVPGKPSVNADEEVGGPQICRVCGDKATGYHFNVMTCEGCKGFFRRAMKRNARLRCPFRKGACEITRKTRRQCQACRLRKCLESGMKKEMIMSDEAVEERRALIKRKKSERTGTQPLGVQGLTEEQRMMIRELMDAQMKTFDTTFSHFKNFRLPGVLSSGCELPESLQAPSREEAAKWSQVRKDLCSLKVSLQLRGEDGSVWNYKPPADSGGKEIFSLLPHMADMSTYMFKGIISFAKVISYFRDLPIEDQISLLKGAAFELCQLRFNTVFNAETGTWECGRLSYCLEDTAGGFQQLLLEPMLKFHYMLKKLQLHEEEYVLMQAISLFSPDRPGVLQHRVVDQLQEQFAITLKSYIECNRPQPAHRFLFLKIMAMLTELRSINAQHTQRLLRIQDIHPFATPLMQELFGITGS
Description: Activation of PXR (unknown origin) at 30 uM relative to control

[16] = Oral bioavailability in Sprague-Dawley rat at 10 mg/kg administered as single dose measured upto 24 hrs by LC-MS/MS analysis; format: ADME, organism-based; conditions: in vivo
[17] = Tmax in Beagle dog at 5 mg/kg, po administered as single dose measured upto 24 hrs by LC-MS/MS analysis; format: ADME, organism-based, Canis lupus familiaris; conditions: in vivo
physchem = conditions: buffer, pH 7.4
[18] = MRT (0 to t) in Beagle dog at 1 mg/kg, iv administered as single dose measured upto 24 hrs by LC-MS/MS analysis; format: ADME, organism-based, Canis lupus familiaris; conditions: in vivo
[19] = Clearance in Beagle dog at 1 mg/kg, iv administered as single dose measured upto 24 hrs by LC-MS/MS analysis; format: ADME, organism-based, Canis lupus familiaris; conditions: in vivo
[20] = Drug metabolism in mouse hepatocytes assessed as oxidation/hydrogenation/decarboxylation metabolite at 10 uM measured upto 240 mins by LC-MS/MS analysis; format: ADME, cell-based, Hepatocyte; conditions: 4 h
Ketohexokinase [21] = target: T3, Ketohexokinase (Homo sapiens, UniProt P50053)
T3 sequence (P50053 whole entry): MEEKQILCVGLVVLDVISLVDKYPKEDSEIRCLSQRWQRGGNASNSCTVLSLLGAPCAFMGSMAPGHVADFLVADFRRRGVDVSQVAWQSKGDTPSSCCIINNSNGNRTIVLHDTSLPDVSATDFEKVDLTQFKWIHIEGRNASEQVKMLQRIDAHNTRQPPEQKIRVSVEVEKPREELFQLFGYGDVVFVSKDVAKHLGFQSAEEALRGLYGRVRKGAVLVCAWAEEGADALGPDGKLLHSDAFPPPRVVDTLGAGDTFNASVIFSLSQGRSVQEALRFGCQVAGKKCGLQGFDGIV
Description: Inhibition of N-terminal his tagged human recombinant KHK-A expressed in Escherichia coli incubated for 60 mins in presence of ATP by ADP Glo assay

in vitro [22] = conditions: human, HepG2 cells
Description: Mitotoxicity in human HepG2 cells incubated for 2 hrs by Celltiter-Glo assay

in vivo [23] = conditions: Sprague-Dawley, rat, lung, po, 10 mg/kg
Description: Drug concentration in Sprague-Dawley rat lung at 10 mg/kg, po administered as single dose measured upto 24 hrs by LC-MS/MS analysis

[24] = MRT (0 to t) in Sprague-Dawley rat at 10 mg/kg, iv administered as single dose measured upto 24 hrs by LC-MS/MS analysis; format: ADME, organism-based; conditions: in vivo
[25] = MRT (0 to t) in Sprague-Dawley rat at 10 mg/kg, po administered as single dose measured upto 24 hrs by LC-MS/MS analysis; format: ADME, organism-based; conditions: in vivo
Rattus norvegicus = assay: In vivo inhibition of KHK in 16 hr fasted Sprague-Dawley rat assessed as inhibition of metabolic clearance of fructose at 50 to 150 mg/kg, po pretreated for 1 hr followed fructose induction and measured after 0.5 to 3 hrs by ELISA method; format: functional, organism-based; conditions: dose lower 50.0 mg/kg, dose upper […], time upper 4.0 hrs
[26] = Elimination half life in Beagle dog at 1 mg/kg, iv administered as single dose measured upto 24 hrs by LC-MS/MS analysis; format: ADME, organism-based, Canis lupus familiaris; conditions: in vivo, read-out: beta t1/2 (converted)
Cytochrome P450 2C9 [27] = target: T1, Cytochrome P450 2C9
Description: Inhibition of CYP2C9 in human liver microsomes at 0.1 to 30 uM measured for 5 mins in presence of NADPH by LC-MS/MS analysis

[28] = Cmax in Beagle dog at 5 mg/kg, po administered as single dose measured upto 24 hrs by LC-MS/MS analysis; format: ADME, organism-based, Canis lupus familiaris; design: time < 24 hrs, dose 5 mg/kg, route po; conditions: in vivo
Ketohexokinase [29] = target: T3, Ketohexokinase; remark: listed apart in the source
Description: Inhibition of N-terminal his tagged human recombinant KHK-C expressed in Escherichia coli incubated for 60 mins in presence of ATP by ADP Glo assay

[30] = Drug metabolism in human hepatocytes assessed as oxidation/hydrogenation/decarboxylation metabolite at 10 uM measured upto 240 mins by LC-MS/MS analysis; format: ADME, cell-based, Hepatocyte; conditions: 4 h

C[C@H]1CCN1c1nc(N2CC[C@H](CCC(=O)O)C2)c2c(n1)C(F)(F)CC2
AUCt [1]: 73000 ng·h/mL | Papp A→B at 2 h, 10 µM (in vitro [2]): 3.64 ×10⁻⁶ cm/s | IC50 (HepG2 [3]): 0.196 µM | remaining at 4 h, 10 µM [4]: 98.2% | Drug metabolism [5]: Metabolite_Notdetected | IC50 (Cytochrome P450 2C9 [6]): > 10 µM | concentration at 24 h (in vivo [7]): 1490 ng/g | IC50 (Cytochrome P450 3A4): > 30 µM | AUC [8]: 44400 ng·h/mL | IC50 (HepG2 [9]): > 150 µM | IC50 [10]: > 30 µM | hepatocyte CLint at 2 h, 1 µM (in vitro [11]): < 0.96 µL/min/1e6 cells | AUC [12]: 34100 ng·h/mL | AUCt [13]: 33400 ng·h/mL | Drug metabolism [14]: Metabolite_Notdetected | half-life [15]: 7.16 h | activity at 30 µM (PXR): 0.96% | bioavailability [16]: 54.6% | Tmax [17]: 0.75 h | logD (physchem): 0.14 | MRT last at 24 h [18]: 4.61 h | clearance [19]: 3.06 mL/min/kg | Drug metabolism [20]: Metabolite_Notdetected | IC50 (Ketohexokinase [21]): 0.0572 µM | IC50 at 2 h (in vitro [22]): > 150 µM | concentration at 24 h (in vivo [23]): 620 ng/g | MRT last at 24 h [24]: 6.09 h | MRT last at 24 h [25]: 8.5 h | inhibition (Rattus norvegicus): Active | half-life [26]: 5.1 h | IC50 (Cytochrome P450 2C9 [27]): > 30 µM | Cmax [28]: 10100 ng/mL | IC50 (Ketohexokinase [29]): 0.0351 µM | Drug metabolism [30]: Metabolite_Notdetected
